Data reported in ChEMBL document CHEMBL5465560, “Selectivity Literature for EUbOPEN Chemogenomic Library” (2024).

How the values were obtained:
[1] = biological target: Dual specificity mitogen-activated protein kinase kinase 1 (Homo sapiens, UniProt Q02750); test: Selectivity interaction (Kinase panel (KiNativ target engagement assay in Jurkat cells)) EUB0001635a MAP2K1; type: cell-based; details: Selectivity number of off-targets 0.0, Selectivity number of targets 233.0, Source Knowledge https://www.sciencedirect.com/science/article/pii/S2451945619300674?via%3Dihub, at 1 µM
[2] = biological target: T1, Serine/threonine-protein kinase Sgk2 (Homo sapiens) (UniProt Q9HBY8); test: Selectivity interaction (KinomeScan (DiscoverX)) EUB0000229b SGK2; details: at 10 µM
T1 sequence (whole entry): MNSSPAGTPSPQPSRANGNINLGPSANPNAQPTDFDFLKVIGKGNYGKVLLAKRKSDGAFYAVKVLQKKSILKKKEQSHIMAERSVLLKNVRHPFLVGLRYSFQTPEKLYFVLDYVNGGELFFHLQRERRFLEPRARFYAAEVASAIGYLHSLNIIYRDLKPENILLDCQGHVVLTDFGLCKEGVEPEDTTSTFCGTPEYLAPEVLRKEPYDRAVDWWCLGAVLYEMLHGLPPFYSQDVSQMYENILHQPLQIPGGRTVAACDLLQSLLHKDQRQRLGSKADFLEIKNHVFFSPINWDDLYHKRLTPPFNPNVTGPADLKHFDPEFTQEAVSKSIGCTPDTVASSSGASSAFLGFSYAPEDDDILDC

[3] = biological target: Myosin-IIIa (Homo sapiens) (UniProt Q8NEV4); test: Selectivity interaction (KinomeScan (DiscoverX)) EUB0000045b MYO3A
Chain of Myosin-IIIa (Homo sapiens) (Q8NEV4 whole entry): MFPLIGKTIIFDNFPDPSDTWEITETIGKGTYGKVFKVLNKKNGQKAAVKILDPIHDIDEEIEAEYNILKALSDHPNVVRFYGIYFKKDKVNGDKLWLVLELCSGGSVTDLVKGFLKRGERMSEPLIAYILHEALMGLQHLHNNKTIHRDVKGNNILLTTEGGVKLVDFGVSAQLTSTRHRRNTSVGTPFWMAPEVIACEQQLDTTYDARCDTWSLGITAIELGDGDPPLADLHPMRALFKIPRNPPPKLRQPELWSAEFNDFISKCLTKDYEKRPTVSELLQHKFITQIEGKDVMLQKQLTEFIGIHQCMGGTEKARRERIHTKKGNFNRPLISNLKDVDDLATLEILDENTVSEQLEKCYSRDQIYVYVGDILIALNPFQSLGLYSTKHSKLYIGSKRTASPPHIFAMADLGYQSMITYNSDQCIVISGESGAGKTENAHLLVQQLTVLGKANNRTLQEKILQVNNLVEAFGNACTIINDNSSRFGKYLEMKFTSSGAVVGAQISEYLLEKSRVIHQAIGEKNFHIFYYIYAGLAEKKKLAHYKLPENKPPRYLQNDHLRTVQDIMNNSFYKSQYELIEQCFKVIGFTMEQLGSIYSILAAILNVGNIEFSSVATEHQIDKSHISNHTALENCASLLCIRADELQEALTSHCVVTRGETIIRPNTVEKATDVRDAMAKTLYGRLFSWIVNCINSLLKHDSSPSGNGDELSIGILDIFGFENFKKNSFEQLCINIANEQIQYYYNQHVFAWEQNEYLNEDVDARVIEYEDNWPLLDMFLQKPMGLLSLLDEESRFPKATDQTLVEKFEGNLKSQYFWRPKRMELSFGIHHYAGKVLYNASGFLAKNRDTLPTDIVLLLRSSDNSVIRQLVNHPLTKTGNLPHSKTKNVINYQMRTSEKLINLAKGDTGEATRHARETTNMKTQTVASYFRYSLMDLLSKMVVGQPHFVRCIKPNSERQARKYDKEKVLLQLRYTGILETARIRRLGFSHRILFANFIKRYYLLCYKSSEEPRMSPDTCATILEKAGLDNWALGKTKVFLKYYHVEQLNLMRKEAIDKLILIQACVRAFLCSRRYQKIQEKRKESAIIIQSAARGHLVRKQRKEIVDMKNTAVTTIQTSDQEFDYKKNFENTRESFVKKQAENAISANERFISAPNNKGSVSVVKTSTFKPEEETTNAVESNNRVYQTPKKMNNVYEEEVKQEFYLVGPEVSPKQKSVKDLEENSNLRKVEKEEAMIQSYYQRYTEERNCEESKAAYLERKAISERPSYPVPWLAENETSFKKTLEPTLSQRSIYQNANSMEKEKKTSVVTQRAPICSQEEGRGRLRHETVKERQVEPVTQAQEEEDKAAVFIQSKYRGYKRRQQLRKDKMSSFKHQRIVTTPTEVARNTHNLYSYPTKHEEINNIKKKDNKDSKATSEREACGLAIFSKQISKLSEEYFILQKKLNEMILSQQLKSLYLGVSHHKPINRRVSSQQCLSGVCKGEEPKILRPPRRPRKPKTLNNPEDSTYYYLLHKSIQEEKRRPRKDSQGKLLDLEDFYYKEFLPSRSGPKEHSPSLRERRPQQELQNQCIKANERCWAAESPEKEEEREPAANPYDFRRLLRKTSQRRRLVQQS

[4] = biological target: Alpha-1D adrenergic receptor (Homo sapiens) (UniProt P25100); test: Selectivity interaction (GPCR panel (PDSP screen)) EUB0001079a ADRA1D; details: at 10 µM
[5] = biological target: Tyrosine-protein kinase receptor UFO (Homo sapiens) (UniProt P30530); test: Selectivity interaction (Kinase panel (Z-LYTE Assay)) EUB0001632a AXL; details: at 10 µM
Chain of Tyrosine-protein kinase receptor UFO (Homo sapiens) (P30530 whole entry): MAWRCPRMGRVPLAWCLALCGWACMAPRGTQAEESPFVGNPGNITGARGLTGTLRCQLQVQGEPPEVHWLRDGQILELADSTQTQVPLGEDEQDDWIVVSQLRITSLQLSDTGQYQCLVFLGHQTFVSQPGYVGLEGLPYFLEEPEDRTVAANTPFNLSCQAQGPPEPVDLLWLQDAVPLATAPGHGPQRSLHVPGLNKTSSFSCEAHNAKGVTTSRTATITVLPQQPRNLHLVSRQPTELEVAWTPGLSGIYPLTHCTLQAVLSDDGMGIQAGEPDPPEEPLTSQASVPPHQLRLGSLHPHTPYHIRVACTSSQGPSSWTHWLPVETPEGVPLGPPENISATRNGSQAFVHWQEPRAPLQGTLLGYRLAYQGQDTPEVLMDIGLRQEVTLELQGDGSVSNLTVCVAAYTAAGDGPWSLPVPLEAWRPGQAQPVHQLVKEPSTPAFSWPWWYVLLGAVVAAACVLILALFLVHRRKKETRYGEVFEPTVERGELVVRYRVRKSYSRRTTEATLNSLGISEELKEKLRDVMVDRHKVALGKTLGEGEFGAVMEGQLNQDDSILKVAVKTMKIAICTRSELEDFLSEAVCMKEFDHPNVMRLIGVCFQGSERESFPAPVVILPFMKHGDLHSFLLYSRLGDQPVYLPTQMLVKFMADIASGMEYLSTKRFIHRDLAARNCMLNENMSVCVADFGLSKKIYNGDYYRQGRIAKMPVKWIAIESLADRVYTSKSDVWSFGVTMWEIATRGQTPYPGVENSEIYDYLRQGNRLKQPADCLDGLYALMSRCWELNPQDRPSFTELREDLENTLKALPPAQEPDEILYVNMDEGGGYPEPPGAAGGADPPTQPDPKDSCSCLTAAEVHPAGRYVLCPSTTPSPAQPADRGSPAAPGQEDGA

[6] = biological target: cAMP-dependent protein kinase catalytic subunit gamma (Homo sapiens) (UniProt P22612); test: Selectivity interaction (LanthaScreen Eu Kinase Binding Assay) EUB0001632a PRKACG; details: at 10 µM
Chain of cAMP-dependent protein kinase catalytic subunit gamma (Homo sapiens) (P22612 2-351 limits assumed): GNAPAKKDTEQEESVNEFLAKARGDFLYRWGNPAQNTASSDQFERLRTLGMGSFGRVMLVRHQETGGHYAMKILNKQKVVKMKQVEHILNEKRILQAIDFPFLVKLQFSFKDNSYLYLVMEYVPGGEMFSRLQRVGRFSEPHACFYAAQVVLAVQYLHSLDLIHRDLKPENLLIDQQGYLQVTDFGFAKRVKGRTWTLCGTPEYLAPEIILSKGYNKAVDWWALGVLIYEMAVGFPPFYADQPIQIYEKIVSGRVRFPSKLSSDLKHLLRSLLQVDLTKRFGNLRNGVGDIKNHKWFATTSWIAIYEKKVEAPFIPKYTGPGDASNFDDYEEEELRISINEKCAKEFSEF

[7] = biological target: Cyclin-dependent kinase 14/Cyclin-Y (Homo sapiens) (UniProt O94921+Q8ND76); test: Selectivity interaction (LanthaScreen Eu Kinase Binding Assay) EUB0001632a CDK14; type: protein-complex assay; details: at 10 µM
[8] = biological target: Macrophage colony-stimulating factor 1 receptor (Homo sapiens) (UniProt P07333); test: Selectivity interaction (KinomeScan (DiscoverX)) EUB0000666a CSF1R; details: at 10 µM
[9] = biological target: Zinc finger CW-type PWWP domain protein 1 (Homo sapiens) (UniProt Q9H0M4); test: Selectivity interaction (PWWP, WD40, and Tudor domain panel (DSLS measurements, literature)) EUB0000270b ZCWPW1
Chain of Zinc finger CW-type PWWP domain protein 1 (Homo sapiens) (Q9H0M4 whole entry, the tested form may be a part): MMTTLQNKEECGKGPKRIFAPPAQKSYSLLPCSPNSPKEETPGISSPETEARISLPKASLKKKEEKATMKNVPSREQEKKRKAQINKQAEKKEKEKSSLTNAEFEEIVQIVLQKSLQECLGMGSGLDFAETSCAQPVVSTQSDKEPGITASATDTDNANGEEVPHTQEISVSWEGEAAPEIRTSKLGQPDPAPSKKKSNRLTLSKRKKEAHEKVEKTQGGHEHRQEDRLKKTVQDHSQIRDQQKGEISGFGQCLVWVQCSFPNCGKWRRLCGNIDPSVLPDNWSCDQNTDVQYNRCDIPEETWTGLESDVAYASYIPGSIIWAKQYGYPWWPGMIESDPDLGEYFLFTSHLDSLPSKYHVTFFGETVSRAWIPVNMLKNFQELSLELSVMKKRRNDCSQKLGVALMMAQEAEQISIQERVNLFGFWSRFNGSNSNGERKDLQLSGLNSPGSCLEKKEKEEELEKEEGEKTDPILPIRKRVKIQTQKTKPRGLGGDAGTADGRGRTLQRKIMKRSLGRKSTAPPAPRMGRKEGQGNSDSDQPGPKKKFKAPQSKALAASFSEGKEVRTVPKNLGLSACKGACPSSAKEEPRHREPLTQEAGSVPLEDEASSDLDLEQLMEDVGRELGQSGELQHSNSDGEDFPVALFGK

[10] = biological target: LIM domain kinase 1 (Homo sapiens) (UniProt P53667); details: at 10 µM
[11] = biological target: Tyrosine-protein kinase Fgr (Homo sapiens) (UniProt P09769); test: Selectivity interaction (Upstate Kinase Profiler service (Millipore)) EUB0000056c FGR; details: at 1 µM
Chain of Tyrosine-protein kinase Fgr (Homo sapiens) (P09769 2-529 limits assumed): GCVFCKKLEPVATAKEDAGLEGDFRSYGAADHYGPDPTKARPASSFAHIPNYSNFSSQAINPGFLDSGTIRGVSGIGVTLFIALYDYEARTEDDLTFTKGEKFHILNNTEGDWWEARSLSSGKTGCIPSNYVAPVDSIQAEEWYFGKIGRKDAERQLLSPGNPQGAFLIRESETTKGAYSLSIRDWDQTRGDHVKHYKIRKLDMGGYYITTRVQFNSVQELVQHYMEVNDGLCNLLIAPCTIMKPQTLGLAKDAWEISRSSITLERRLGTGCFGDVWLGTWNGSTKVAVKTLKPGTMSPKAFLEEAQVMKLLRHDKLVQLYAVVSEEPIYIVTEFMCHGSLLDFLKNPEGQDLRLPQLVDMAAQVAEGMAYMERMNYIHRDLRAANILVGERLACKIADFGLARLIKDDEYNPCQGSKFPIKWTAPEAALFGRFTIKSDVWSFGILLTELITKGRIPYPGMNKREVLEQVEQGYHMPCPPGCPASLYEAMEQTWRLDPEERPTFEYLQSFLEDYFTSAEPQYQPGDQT

[12] = biological target: RAC-gamma serine/threonine-protein kinase (Homo sapiens, UniProt Q9Y243); test: Selectivity interaction (KinomeScan (DiscoverX)) EUB0000607a AKT3; details: at 10 µM
Chain of RAC-gamma serine/threonine-protein kinase (Q9Y243 whole entry): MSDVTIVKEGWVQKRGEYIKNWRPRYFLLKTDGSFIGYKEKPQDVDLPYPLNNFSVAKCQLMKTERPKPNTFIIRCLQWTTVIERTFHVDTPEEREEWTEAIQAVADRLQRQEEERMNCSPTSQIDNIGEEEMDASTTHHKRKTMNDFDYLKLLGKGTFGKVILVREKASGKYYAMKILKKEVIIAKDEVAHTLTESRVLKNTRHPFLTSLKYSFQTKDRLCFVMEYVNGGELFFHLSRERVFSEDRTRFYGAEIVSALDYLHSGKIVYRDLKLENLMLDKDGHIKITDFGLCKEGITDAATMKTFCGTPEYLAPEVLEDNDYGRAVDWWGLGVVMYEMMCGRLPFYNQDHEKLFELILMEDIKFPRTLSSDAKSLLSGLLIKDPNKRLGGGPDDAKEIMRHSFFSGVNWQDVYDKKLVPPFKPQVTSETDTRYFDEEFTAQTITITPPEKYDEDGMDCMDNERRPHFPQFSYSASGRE

[13] = biological target: T2, Serine/threonine-protein kinase Nek9 (Homo sapiens) (UniProt Q8TD19); test: Selectivity interaction (SelectScreen profiling (Invitrogen)) EUB0000607a NEK9; details: at 2 µM
T2 sequence (whole entry): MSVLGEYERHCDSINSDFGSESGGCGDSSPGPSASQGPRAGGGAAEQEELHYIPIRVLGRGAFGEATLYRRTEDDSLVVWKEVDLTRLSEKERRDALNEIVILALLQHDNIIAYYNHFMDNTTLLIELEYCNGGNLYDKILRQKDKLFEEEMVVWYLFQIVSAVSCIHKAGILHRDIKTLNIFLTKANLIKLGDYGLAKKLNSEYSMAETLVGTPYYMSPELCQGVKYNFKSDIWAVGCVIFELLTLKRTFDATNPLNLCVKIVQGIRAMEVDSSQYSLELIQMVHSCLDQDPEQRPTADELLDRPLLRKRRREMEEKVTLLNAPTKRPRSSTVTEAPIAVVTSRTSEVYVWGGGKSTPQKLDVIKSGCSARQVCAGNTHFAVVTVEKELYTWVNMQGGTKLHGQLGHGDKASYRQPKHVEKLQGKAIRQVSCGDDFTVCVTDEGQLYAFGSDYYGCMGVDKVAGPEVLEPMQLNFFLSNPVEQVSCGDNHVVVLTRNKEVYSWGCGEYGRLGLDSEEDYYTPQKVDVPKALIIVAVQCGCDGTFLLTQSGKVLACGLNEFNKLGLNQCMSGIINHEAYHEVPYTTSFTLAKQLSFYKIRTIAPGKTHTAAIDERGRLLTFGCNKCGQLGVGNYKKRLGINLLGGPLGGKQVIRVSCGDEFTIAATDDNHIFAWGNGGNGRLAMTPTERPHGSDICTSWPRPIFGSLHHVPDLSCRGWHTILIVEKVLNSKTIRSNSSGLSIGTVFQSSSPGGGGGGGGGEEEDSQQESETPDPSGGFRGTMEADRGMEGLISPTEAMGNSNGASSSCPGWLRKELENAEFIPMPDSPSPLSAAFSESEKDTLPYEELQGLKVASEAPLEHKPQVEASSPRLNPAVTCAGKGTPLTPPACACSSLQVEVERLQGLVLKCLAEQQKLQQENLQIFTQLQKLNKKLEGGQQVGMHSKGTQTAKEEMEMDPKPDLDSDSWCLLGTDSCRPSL

[14] = biological target: Tyrosine-protein kinase receptor UFO (Homo sapiens) (UniProt P30530); details: at 10 µM
[15] = biological target: T3, Serine/threonine-protein kinase Nek2 (Homo sapiens) (UniProt P51955); details: at 10 µM
T3 sequence (whole entry): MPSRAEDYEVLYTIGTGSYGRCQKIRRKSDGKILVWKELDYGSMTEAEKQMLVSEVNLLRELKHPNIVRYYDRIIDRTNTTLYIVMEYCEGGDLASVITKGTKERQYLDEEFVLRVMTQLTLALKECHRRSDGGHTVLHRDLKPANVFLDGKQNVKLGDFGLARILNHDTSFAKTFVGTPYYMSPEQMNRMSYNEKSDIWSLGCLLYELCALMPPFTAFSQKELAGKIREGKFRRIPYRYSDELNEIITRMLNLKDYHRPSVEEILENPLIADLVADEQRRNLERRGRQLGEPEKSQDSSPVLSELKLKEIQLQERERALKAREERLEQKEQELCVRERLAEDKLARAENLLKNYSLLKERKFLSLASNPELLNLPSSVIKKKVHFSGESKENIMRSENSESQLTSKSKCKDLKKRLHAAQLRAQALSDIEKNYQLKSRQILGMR

[16] = biological target: Casein kinase I isoform alpha (Homo sapiens, UniProt P48729); test: Selectivity interaction (Ambit KINOMEscan and KiNATiv profiling in Jurkat cells) EUB0000090b CSNK1A1; type: cell-based; details: at 1 µM
Chain of Casein kinase I isoform alpha (P48729 2-337 limits assumed): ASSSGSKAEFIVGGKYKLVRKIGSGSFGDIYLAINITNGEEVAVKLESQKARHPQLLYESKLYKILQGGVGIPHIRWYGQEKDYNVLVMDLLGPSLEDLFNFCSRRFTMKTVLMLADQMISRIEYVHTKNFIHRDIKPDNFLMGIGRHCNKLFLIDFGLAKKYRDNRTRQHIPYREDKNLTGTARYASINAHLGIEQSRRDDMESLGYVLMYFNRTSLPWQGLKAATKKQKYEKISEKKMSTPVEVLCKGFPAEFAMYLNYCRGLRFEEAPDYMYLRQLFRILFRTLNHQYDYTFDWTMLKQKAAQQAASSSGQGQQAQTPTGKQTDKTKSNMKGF

**Q.** Which % of engagement [1] does the source give for `C=CC(=O)Nc1ccc(C(=O)Nc2[nH]nc3c2CN(C(=O)N[C@H](CN(C)C)c2ccccc2)C3(C)C)cc1` here?
**A.** Its % of engagement is -2.4%.

**Q.** Which % binding [2] does the source give for `COc1cc(N(C)c2ccnc3ccc(C(F)(F)F)cc23)cc(OC)c1OC` here?
**A.** Its % binding is 80%.

**Q.** For `C=CC(=O)Nc1cc(-n2c(=O)ccc3cnc4ccc(-c5ccc(NS(C)(=O)=O)cc5)cc4c32)ccc1C`, which % of control ([3]; at 1 µM) is on record?
**A.** Its % of control is 100%.

**Q.** And the % of control ([3]; at 10 µM)?
**A.** The % of control was 85%.

**Q.** `Nc1cnc(N2CCc3cc(S(=O)(=O)Nc4c(F)cc(Cl)cc4F)cc(N4CCCC4=O)c32)nc1` [TP-020n] was tested. Which % of inhibition [4] did it give?
**A.** The % of inhibition was -2.31%.

**Q.** With `Cn1cc(-n2cnc3c(NCc4nc5cc(Cl)c(Cl)cc5[nH]4)nc(N4CCOCC4)nc32)cn1` as the molecule, how does the % of control [5] read?
**A.** The % of control was 2.06%.

**Q.** And the % of inhibition [6]?
**A.** Its % of inhibition is -38.1%.

**Q.** What about the % of inhibition [7] of the same molecule?
**A.** Its % of inhibition is -159%.

**Q.** With `O=C(NOC[C@H](O)CO)c1ccc(F)c(F)c1Nc1ccc(I)cc1F` as the molecule, how does the % of control [8] read?
**A.** The % of control was 80%.

**Q.** `Cc1cc(CN)cc(C)c1-c1ncn(C)c1-c1cncn1C` was tested. Which dTagg [9] did it give?
**A.** The dTagg was 0 K.

**Q.** With `Cc1cc([C@@H](C)Nc2ccccc2C(=O)O)c2nc(N3CCOCC3)cc(=O)n2c1` [AZD-6482] as the molecule, how does the % of control [10] read?
**A.** Its % of control is 100%.

**Q.** With `Cc1ccc(-c2ccc3c(ccc4sc5c(c43)NC[C@@H](C)NC5=O)n2)cn1` as the molecule, how does the % of inhibition [11] read?
**A.** Its % of inhibition is 9%.

**Q.** With `CNC(=O)Nc1ccc(-c2nc(N3CC4CCC(C3)O4)c3cnn(C4CCC5(CC4)OCCO5)c3n2)cc1` as the molecule, how does the % of control [12] read?
**A.** The % of control was 86%.

**Q.** What about the % of inhibition [13] of the same molecule?
**A.** The % of inhibition was -2%.

**Q.** For `CCN(CC)CCCCNc1ncc2cc(-c3cc(OC)cc(OC)c3)c(NC(=O)NC(C)(C)C)nc2n1`, which % of control [14] is on record?
**A.** Its % of control is 100%.

**Q.** What about the % of control [15] of the same molecule?
**A.** The % of control was 100%.

**Q.** With `CN(C)C/C=C/C(=O)Nc1ccc(C(=O)N2CCCC(Nc3ncc(Cl)c(-c4c[nH]c5ccccc45)n3)C2)cc1` (configuration not stated) as the molecule, how does the % of control [16] read?
**A.** The % of control was 51%.
